Experimental data published in patent US11938129B2, “Methods and compositions for the treatment of vascular disease” (THE GENERAL HOSPITAL CORPORATION, priority 2018, dated 2024).
Entries after “also recorded” stand apart in the source; their conditions may differ.

Experiments:
[1] = tested on: neointimal formation in ligated carotid; assay: murine carotid artery ligation model: neointimal formation and stenosis (histology); format: in vivo, mouse; conditions: wild-type mice, left carotid ligation, 21 days; GSK343 in drinking water from 24 hrs before ligation for 3 weeks; GapmeR 15 nmol 24 hrs before and 7 days post-ligation
Procedure: All mice used in this study were cared for under strict compliance with the Partners Institutional Animal Care and Use Committee (IACUC), regulated by the United States Public Health Service (USPHS). Carotid ligations were performed in 10 week old mice. Briefly, animals were anesthetized using intraperitoneal ketamine/xylazine (80 and 12 mg/kg, respectively) followed by a small incision in the neck to expose the carotid artery. Then the left carotid was ligated at the carotid bifurcation level using a 8-0 silk suture. At 21 days mice were sacrificed and carotids were collected for histological analysis. Approximately 98% of wild type mice developed stenotic lesions. Mice that developed thrombosis of the ligated carotid were excluded from the study (−1¬2%). Malatl knockout mice were kindly provided by Dr. David Spector (Cold Spring Harbor, N.Y.). Hdac9 flox/flox/Talgn-cre mice were generated as previously reported (10). […]
Left and right carotids were cryosectioned using OCT standard protocol and sectioning. […] Slides 1, 5, 10, and 15 were H&E stained for quantification of neointima. For quantification of the neointima, internal and external elastic lamina perimeters and medial thickness from 4 quadrants were measured and averaged using Image J software from the National Institutes of Health (NIH). […]

a-SMA and SM22a = assay: immunofluorescence of contractile proteins in ligated carotids; format: in vivo, mouse
Procedure: All mice used in this study were cared for under strict compliance with the Partners Institutional Animal Care and Use Committee (IACUC), regulated by the United States Public Health Service (USPHS). Carotid ligations were performed in 10 week old mice. Briefly, animals were anesthetized using intraperitoneal ketamine/xylazine (80 and 12 mg/kg, respectively) followed by a small incision in the neck to expose the carotid artery. Then the left carotid was ligated at the carotid bifurcation level using a 8-0 silk suture. At 21 days mice were sacrificed and carotids were collected for histological analysis. Approximately 98% of wild type mice developed stenotic lesions. Mice that developed thrombosis of the ligated carotid were excluded from the study (−1¬2%). Malatl knockout mice were kindly provided by Dr. David Spector (Cold Spring Harbor, N.Y.). Hdac9 flox/flox/Talgn-cre mice were generated as previously reported (10). Ezh2 fl/fl/ (STOCK Ezh2tm2Sho/J) and Myh11-cre-GFP (B6.Cg-Tg(Myh11-cre,-EGFP)2Mik/J) were crossed to generate smooth muscle cell-Ezh2 deficient mice. All above mice and wild-type mice (C57BL/6J) were purchased from Jackson laboratory. For tissue analysis, animals were euthanized through inhalational isoflurane (Sigma, St, Louis, Mo.) prior to tissue collection. All carotid ligation (left carotid) procedures were performed at 10 weeks of age. All experiments were performed on male and female animals at a 1:1 ratio.
Left and right carotids were cryosectioned using OCT standard protocol and sectioning. The right carotid artery was unligated and served as an internal control. Neoinitima analysis was performed from hematoxylin and eosin (H & E) stained horizontal cross-sections embedded in Optimal Cutting Temperature compound (OCT). Briefly, the distal 0.2 mm of carotid from the ligation suture site were discarded followed by generation of 20 slides (10 pM). Slides 1, 5, 10, and 15 were H&E stained for quantification of neointima. For quantification of the neointima, internal and external elastic lamina perimeters and medial thickness from 4 quadrants were measured and averaged using Image J software from the National Institutes of Health (NIH). Slides 2-4, 6-9, and 11-14 were used for immunofluorescence staining.
Cohorts of 10-week-old wild-type mice were treated with oral administration in drinking water of GSK343 24 hrs before left carotid ligation and following treatment for 3 weeks. GSK343 inhibitor (25 mg) was dissolved in 1 mL of DMSO to obtain a stock solution of 46 mM. Then, 250 ml of drinking water was supplemented with 250 pl of GSK343 stock solution. Control group for was given with equal volumes of sterile water. Bottles containing GSK343 were replaced with fresh water supplied with drug every 3 days. […]

Compound: CCCc1cc(C)[nH]c(=O)c1CNC(=O)c1cc(-c2ccnc(N3CCN(C)CC3)c2)cc2c1cnn2C(C)C [GSK343]
- extent of the stenotic response / neointimal formation [1]: significant inhibition of neointimal formation; also recorded: dramatically improved the extent of the stenotic response
- expression of α-SMA in carotid VSMCs (a-SMA and SM22a; ligated carotid, in contrast to carotid VSMCs in wild type animals): robust expression
- expression of contractile proteins such as a-SMA and SM22a (a-SMA and SM22a; ligated carotids of treated mice): improved the expression of contractile proteins
